Source: ChEMBL document CHEMBL1132004, “Antagonism of the TXA2 receptor by seratrodast: a structural approach” (Bioorg Med Chem Lett, 1999)

Assay: The pKa of the sulfonamido group of the compound
Assay type: physicochemical

pKa: 6
SMILES: Cc1cccc(Nc2ccncc2S(=O)(=O)/N=C(\NC#N)N2CCCCCC2)c1
